What all share (assay): DTP human tumour cell line panel, 48 h
Test [1] concerns SK-MEL-2 melanoma.
Test [2] has as its system UO-31 renal.
Test [3] deals with TK-10 renal.
Test [4] has as its system LOX IMVI melanoma.
For test [5], the system named is SK-MEL-5 melanoma.
The subject of test [6] is SK-OV-3 ovarian.
In test [7] the test system is A498 renal.
In test [8] the test system is OVCAR-5 ovarian.
Test [9] concerns PC-3 prostate.

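Compound exposure: 48 hours, 5 concentrations, 96-well plates. Abbreviation: GI50, concentration required for 50% inhibition of growth. Definition used: TGI = concentration required for complete inhibition of growth.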

One may read the TGI as the concentration giving total growth inhibition. In the case of `CCCCCCCCCCCCCCCc1nc(SCC(=O)O)n[nH]1`, the total growth inhibition concentration (TGI) in test [1], in [2], in test [3], in test [4], in test [5] and in [6] was more than 100 µM throughout.

On to `C[C@]12CC[C@H](O)CC1CCC[C@@H]2O` (stereo partly drawn), for which the TGI in test [1], in test [2], in test [3], in test [7], in test [4] and in [5] was more than 100 µM each time. The compound also gave a TGI in test [6] of more than 100 µM.

Turning to `Nc1c(-c2ccc(-c3c(N)[n+]([O-])c4ccccc4[n+]3[O-])cc2)[n+]([O-])c2ccccc2[n+]1[O-]`, the TGI came out at 28.9 µM in test [1]; 32.6 µM in [2]; 32.1 µM in test [3]; 35.5 µM in test [7]; 25.6 µM in test [4]; 23.6 µM in [5]. Also, the figures for the TGI in [8] and in test [6] were 35.2 µM and 52.7 µM, respectively.

As to `CC(=O)NC1C(OCc2ccccc2)OC(COC(=O)CCCCCCCCCCNC(=O)CCNc2ccc([N+](=O)[O-])c3[nH]c4ccc(O)cc4c(=O)c23)C(O)C1OC(C)C(=O)N[C@H](C(=O)N[C@H](CCC(=O)O)C(N)=O)C(C)C` (stereo partly drawn), the TGI is more than 100 µM in [1]; more than 100 µM in test [2]; more than 100 µM in [3]; more than 100 µM in [7]; 89.2 µM in [4]; more than 100 µM in [5]. For the same compound, the TGI in test [8] and in [6] was more than 100 µM throughout.

Regarding `O=C(NCCOCCO)c1ccc(O)cc1`, the TGI in test [2], in test [3], in test [7], in [4], in [5] and in [6] was more than 100 µM each time.

With `O=C1OC(/C=C/c2ccccc2)C(=O)C1=O` (stereo not drawn), the concentration for total growth inhibition (TGI) in [1], in test [2], in test [3], in test [7], in [8] and in test [6] was more than 100 µM in each case.

In the case of `CC(=O)c1ccc(-c2ccc(C(C)=O)s2)s1`, the TGI in test [1] is more than 100 µM; in test [2] it was more than 100 µM; in [3], more than 100 µM; in test [7] it was 4.16 µM; in [4], more than 100 µM; in test [5] it was more than 100 µM. Moreover, the TGI in test [8] and in test [6] was more than 100 µM each time.

For `O=C1C2Cc3ccccc3CN2C(=O)N1CCN1CCOCC1` (stereo not drawn), the TGI in [1], in test [2], in test [3], in test [7], in test [4] and in test [5] was more than 100 µM throughout. In addition, the concentration for total growth inhibition (TGI) in [8] was more than 100 µM.

As for `COc1ccc2c(c1)[n+](=O)c(C(=O)C/C(=N\NC(=O)C[N+](C)(C)C)C(=O)Nc1cc(Cl)ccc1Cl)c(C)n2O`, the TGI in test [1], in test [2], in [3], in test [7], in test [4] and in [5] was more than 100 µM each time. In test [8], this compound showed a TGI of more than 100 µM.

As for `NCCCSCC(=O)O`, the concentration for total growth inhibition (TGI) in test [1], in test [2], in test [3], in [5], in [8] and in [6] was more than 100 µM in each case.

On to `Cn1c(=O)ccc2cc(C(=O)c3ccccc3)ccc21`, for which the TGI in test [1] is more than 100 µM; in test [3], more than 100 µM; in test [7], more than 100 µM; in test [4] it was more than 100 µM; in [5], 55.7 µM; in test [8], more than 100 µM. Further, in test [6], the concentration for total growth inhibition (TGI) was more than 100 µM.

The term GI50 denotes the concentration at which growth is held to half of that of the control. `OC(c1cc2c(Cl)cc(Cl)cc2c2cc(C(F)(F)F)ccc12)C1CCCCN1` (stereo not drawn): the GI50 was 2.27 µM in [1]; 1.41 µM in test [2]; 1.71 µM in test [9]; 2 µM in [3]; 1.46 µM in [7]; 1.73 µM in [5]. In addition, the figures for the GI50 in test [8] and in test [6] were 1.58 µM and 1.67 µM, respectively. The TGI in [1] stood at 4.12 µM; in test [2] it was 2.99 µM; in test [9], 3.26 µM; in [3], 3.63 µM; in test [7] it was 2.9 µM; in test [5] it was 3.12 µM. Also, the total growth inhibition concentration (TGI) in [8] worked out at 3.15 µM; in test [6] it was 3.26 µM.

With `Cn1c(=O)c2nc3sc4ccccc4c(=N)n3c2n(C)c1=O`, the TGI in test [1], in test [2], in test [3], in test [7], in test [4] and in [5] was more than 100 µM in each case. Further, the TGI in test [8] and in [6] was more than 100 µM each time.

As for `CC(=O)Oc1cc(OC(C)=O)c(OC(C)=O)c2c1CC1C(=O)C3(CCc4ccccc43)C(=O)C1C2` (stereo not drawn), the TGI in [2] amounted to 36.6 µM; in [3] it was 31.7 µM; in test [4], 26.2 µM; in [6] it was 58.8 µM.

On to `COc1cccc(/C=N/[N-]C(N)=O)c1[O-].[Cu+2].c1ccncc1`, for which the total growth inhibition concentration (TGI) in test [1] turned out to be 58.5 µM; in [2], 44.3 µM; in test [7] it was 45.5 µM; in test [4], 36.5 µM; in [5], 37.2 µM; in test [8], 45.1 µM. The compound further displayed a TGI in [6] of 49.7 µM.

In the case of `COC(=O)C1=CCS(=O)(=O)C1`, the TGI in [1], in [2], in test [3], in test [7], in test [4] and in test [5] was more than 100 µM throughout. The TGI in [8] and in test [6] was more than 100 µM throughout.

`OC1/C(=C/c2ccccc2)CNC/C1=C\c1ccccc1` (stereo not drawn): the TGI in test [2], in test [3], in test [7], in test [4], in [5] and in test [8] was more than 100 µM each time. Further, in test [6], the TGI was more than 100 µM.

`O=c1cc(/C=C/c2ccccc2)c2ccc(O/C(=C\c3ccccc3)c3nc4ccccc4c(=O)o3)cc2o1`: the total growth inhibition concentration (TGI) in [1] is 77.7 µM; in [3], more than 100 µM; in test [7], more than 100 µM; in [4] it was more than 100 µM; in test [5], 41 µM; in test [8], more than 100 µM. Moreover, the TGI in test [6] is more than 100 µM.
